Here are results for 1 molecule from patent US11267802B2 (BEBETTER MED INC., priority 2015, dated 2022).

The subject of data set [1] is H1975 xenograft tumor. The data set can be described thus: Potency assay of tumor model, dose-effect relationship, 22 consecutive days. The conditions noted are these: for Tumor inhibition T/C value (%) / Weight change (%): po, qd. Format: in vivo, Balb/C nude mice. The method, then:
(§1) Balb/C nude mice were purchased from Beijing Vital River Laboratory Animal Technology Co., Ltd., and housed in SPF animal room. The human non-small-cell lung cancer cell line H1975 in a culture dish was collected by trypsin-EDTA (0.25% trypsin, 1 mM EDTA), and then washed with a serum-free PBS solution. Lastly, the cells were implanted after diluted in a serum-free medium. Only the single cell suspension with a survival rate over 90% (Trypan blue rejection) can be used for injection. 5 million cells suspended in a 0.1 ml serum-free culture were injected into the front right flanking subcutaneous region of each mouse by using a 1 ml syringe and a 25G syringe needle, and the blood vessel was carefully avoided. The tumor size was measured in about one week after implantation. A caliper rule was used to measure the tumor size. The tumor volume was calculated by the following formula: tumor volume=(length×width^2)/2.
Further assay was performed to assess the dose-effect relationship of the inhibition of H1975 transplantation tumor growth by the compounds 51 and 91. […] These compounds were dissolved in 30% sulfobutylated beta-cyclodextrin (SBE-β-CD) and 1N HCl (pH 3-4), respectively. […]

Data set [2] deals with H1975 xenograft tumor. The data set can be described thus: Potency assay of tumor model, 16 consecutive days. Format: in vivo, Balb/C nude mice. The note with it: oral. The procedure: as §1
This experiment studied the inhibition of tumor growth in H1975 xenograft tumor model by the compounds 20, 50, 91, and 118. When the mean volume of H1975 tumor reached about 260 mm^3, the animals were divided into 5 oral administration groups, that is, excipient control group and groups of oral administration of compound 20, compound 50, compound 91, and compound 118, respectively (n=8/group). These compounds were dissolved in 30% sulfobutylated beta-cyclodextrin (SBE-β-CD) and 1N HCl (pH 3-4). […]

A further data set addresses T1, EGFR T790M/L858R (Homo sapiens, UniProt P00533, L858R/T790M).
T1 construct: purchased Invitrogen PR8911A
Nature of the data set: Mutant EGFR T790M/L858R activity inhibition assay (Caliper mobility shift). Type of data set: biochemical. The conditions noted are these: read-out: enzyme activity inhibition (IC50) EGFR T790M/L858R. A digest of the protocol: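 Compound added in 10% DMSO at 5-fold final concentration; substrate conversion read by Caliper mobility shift. Inhibition = (max−conversion)/(max−min)×100, with max from DMSO no-compound wells and min from no-enzyme wells; IC50 from fitted concentration–response curve.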

Data set [3] has as its system EGFR phosphorylation in H1975 xenograft tumor. The data set can be described thus: Pharmacodynamic experiments of tumor model (EGFR phosphorylation, Western blot). Type of data set: in vivo, Balb/C nude mice. The note with it: oral 30 mg/kg. The procedure: as §1
When the H1975 xenograft tumor reached a volume of about […], the animals were divided into 4 oral administration groups, that is, excipient control group (0 hour) and groups of 2 hours, 4 hours, and 8 hours after administration (3 to 4 animals at each time point). […]
20 mg of tumor tissue was homogenized in 300 μl of protein extract (RIPA, CST, #9806). […] The protein concentration was determined by Bradford method (Beyotime, # P0006). […]
(In western blotting, separated proteins are transferred to a membrane and probed.)

Molecules are shown by their SMILES.

T1 sequence (P00533 25-1210 T790M/L858R): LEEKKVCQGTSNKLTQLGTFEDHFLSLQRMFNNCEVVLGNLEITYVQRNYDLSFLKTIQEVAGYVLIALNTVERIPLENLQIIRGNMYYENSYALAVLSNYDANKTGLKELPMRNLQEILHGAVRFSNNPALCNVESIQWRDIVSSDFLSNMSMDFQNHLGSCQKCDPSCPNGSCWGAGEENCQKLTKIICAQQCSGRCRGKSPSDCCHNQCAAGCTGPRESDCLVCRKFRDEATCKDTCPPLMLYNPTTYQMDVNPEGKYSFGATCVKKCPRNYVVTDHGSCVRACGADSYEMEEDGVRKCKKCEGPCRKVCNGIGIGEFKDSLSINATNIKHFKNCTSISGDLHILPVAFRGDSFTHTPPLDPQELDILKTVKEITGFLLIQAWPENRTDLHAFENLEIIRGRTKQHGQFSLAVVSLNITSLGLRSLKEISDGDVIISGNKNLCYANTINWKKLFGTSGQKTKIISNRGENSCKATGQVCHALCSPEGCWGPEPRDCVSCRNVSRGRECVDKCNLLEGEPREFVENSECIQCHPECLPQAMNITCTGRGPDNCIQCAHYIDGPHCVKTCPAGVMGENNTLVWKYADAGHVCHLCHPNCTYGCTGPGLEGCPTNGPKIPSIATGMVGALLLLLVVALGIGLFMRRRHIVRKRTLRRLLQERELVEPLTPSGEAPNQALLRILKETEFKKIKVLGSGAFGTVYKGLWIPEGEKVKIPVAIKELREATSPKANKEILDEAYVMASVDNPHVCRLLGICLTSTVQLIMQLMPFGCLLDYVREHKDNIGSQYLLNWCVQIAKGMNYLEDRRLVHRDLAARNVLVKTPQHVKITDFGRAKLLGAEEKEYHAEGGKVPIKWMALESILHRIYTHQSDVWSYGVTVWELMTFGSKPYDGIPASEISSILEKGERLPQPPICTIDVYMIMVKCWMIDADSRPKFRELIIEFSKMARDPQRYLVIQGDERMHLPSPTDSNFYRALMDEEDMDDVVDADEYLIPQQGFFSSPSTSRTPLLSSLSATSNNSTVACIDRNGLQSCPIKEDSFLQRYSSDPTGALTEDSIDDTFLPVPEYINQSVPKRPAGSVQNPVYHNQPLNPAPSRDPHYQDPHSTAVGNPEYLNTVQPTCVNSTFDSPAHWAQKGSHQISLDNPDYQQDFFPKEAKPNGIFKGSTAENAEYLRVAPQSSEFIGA

Usually melting point stands for the temperature, or range, at which the solid turns liquid. `C=CC(=O)Nc1cc(Nc2nccc(-n3c(=O)n(C(C)C)c4cc(F)ccc43)n2)c(OC)cc1N(C)CCN(C)C` [Compound 91, N-(2-((2-(dimethylamino)ethyl)(methyl)amino)-5-(4-(5-fluoro-3-isopropyl-2-oxo-2,3-dihydro-1H-benzo[d]imidazol-1-yl)pyrimidin-2-ylamino)-4-methoxyphenyl)acrylamide]: the melting point was in the range of 225 to 227 °C. Also, in the data set on H1975 xenograft tumor [1] (10 mg/kg, 22 consecutive days), the “Tumor inhibition T/C value (%)” value is listed as −73% and the “Weight change (%)” value amounted to 1.6%. Besides, in the data set with H1975 xenograft tumor [1] (20 mg/kg, 22 consecutive days), the “Tumor inhibition T/C value (%)” value is −100% and the “Weight change (%)” value was 1.2%. For the same molecule, in the data set with H1975 xenograft tumor [1] (40 mg/kg, 22 consecutive days), the “Tumor inhibition T/C value (%)” value is given as −100% and the “Weight change (%)” value is given as −3.5%. The “tumor outcome (in words)” value in the data set with H1975 xenograft tumor [1] (high dose (40 mg/kg), 22 consecutive days) was “the tumor disappeared completely”. Moreover, in the data set with H1975 xenograft tumor [1] (oral, 10, 20 and 40 mg/kg), the “dose dependence of inhibition of H1975 xenograft tumor growth (in words)” value is on record as “dose dependently inhibited”. Moreover, the T/C value with H1975 xenograft tumor [2] (30 mg/kg qd as printed, 16 days after administration) is −95%. Besides, the “inhibition of growth of H1975 xenograft tumor (in words)” value in the data set on H1975 xenograft tumor [2] (30 mg/kg qd, 16 days) was “tumor regression”. At EGFR T790M/L858R, the IC50 was less than 1 nM. Besides, the “inhibition of EGFR phosphorylation in H1975 tumor (in words)” value in data set [3] (at 2 hours and 4 hours) was “strong”. Besides, the “inhibition of EGFR phosphorylation in H1975 tumor (in words)” value in data set [3] (at 8 hours) is “obvious inhibition effect”.
